Experimental data published in patent US20050032904A1, “Composition and use of allylamine derivatives” (priority 2003, published 2005).

How the values were obtained:
[1] = tested on: hepatoma and colon cancer cells; details: previous studies of the inventors; cited from earlier work
[2] = tested on: COLO 205 tumor xenografts; assay: Treatment of COLO 205-derived xenografts in vivo; parameters: species or system nude mouse; details: TB 50 mg/kg, ND 5 mg/kg, intraperitoneal, 3 times per week for 6 weeks
Procedure: Genomic DNAs extracted from TB-treated COLO 205 were examined by gel electrophoresis. […] DNA fragmentation was examined at 24 h after drug treatment. In the lanes 2 and 8, cells received mock treatment as controls. […] Comparisons were subjected to ANOVA followed by Fisher's least significant difference test. […] Since, retardation of the cell cycle and/or activation of the cellular apoptotic response are two major mechanisms preventing tumor growth, we examined the TB effect on the cell cycle and apoptosis occurrence of the solid tumor derived from the implanted COLO 205. The COLO-205 cells (5×10^6) in 0.1 ml RPMI 1640 were injected subcutaneously between the scapulae of each nude mouse (purchased from National Science Council animal center, Taipei). […]

[3] = tested on: COLO 205 cells; assay: DNA fragmentation (DNA ladder) by electrophoresis of genomic DNA; type: cell-based, human
Procedure: Genomic DNAs extracted from TB-treated COLO 205 were examined by gel electrophoresis. […] In FIG. 9, the part of (A) refers to potentiation of ND-induced apoptosis by TB. […] DNA fragmentation was examined at 24 h after drug treatment. In the lanes 2 and 8, cells received mock treatment as controls. The symbols of “M” (in lanes 1 and 7), refer to “DNA size marker.” (B) average tumor volume of DMSO-treated vs. drug-treated nude mice (n=5). (C) tumor weight, (D) animal body weight, and (E) tumor/body weight ratio were measured at the end of experiment. Five samples were analyzed in each group, and values represent the mean±S.E. Comparisons were subjected to ANOVA followed by Fisher's least significant difference test. Significance was accepted at p<0.05. *TB-, ND-, and TB+ND-treated group different from DMSO-treated group. TB+ND-treated group different from TB- or ND-treated group.

[4] = tested on: malignant cells; details: through abnormal microtubule polymerization; previous study; cited from earlier work
[5] = tested on: COLO 205 tumor xenografts; details: previous research; cited from earlier work

In the case of `CC(=O)N1CCN(c2ccc(OCC3COC(Cn4ccnc4)(c4ccc(Cl)cc4Cl)O3)cc2)CC1` (stereo not drawn) [ketoconazole], the “cell cycle arrest and apoptosis” value [1] is given as “induced cell cycle arrest at the G0/G1 phase of the cell cycle and the occurrence of apoptosis”.

For `COC(=O)Nc1nc2ccc(C(=O)c3cccs3)cc2[nH]1` [ND, nocodazole], the “tumor volume vs. vehicle (DMSO plus peanut oil)” value [2] was “reduction in tumor volume”, the “ND concentration at which DNA ladder patterns characteristic of apoptosis are displayed” value ([3]; ND alone, 24 h after drug treatment) was at least 50 nM and the “ND concentration inducing the DNA ladder pattern” value ([3]; in the presence of 10 μM TB, 24 h) was 1 nM.

For `COC1=CC(=O)C[C@@H](C)[C@]12Oc1c(Cl)c(OC)cc(OC)c1C2=O` [griseofulvin], the “apoptosis and cell cycle arrest” value [4] is given as “induced apoptosis and cell cycle arrest at the G2/M phase” and the “effect on anti-cancer activities of nocodazole in vivo” value [5] is given as “potentiates the anti-cancer activities of nocodazole”.
